This is an account of results in publication PMC8020607 (Computational Biology and Chemistry, 2021).

The assay deals with T1, C5a (recombinant human C5a) (Homo sapiens, UniProt P01031).
T1 sequence (P01031 678-751 limits assumed): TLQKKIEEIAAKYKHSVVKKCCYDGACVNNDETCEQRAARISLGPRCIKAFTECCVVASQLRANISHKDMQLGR
Briefly: intrinsic tyrosine fluorescence titration, non-linear fit. The class given is binding.

The structures appear in SMILES notation.

In the case of `C[C@]12C=CC(=O)C=C1CC[C@@H]1[C@@H]2C(=O)C[C@@]2(C)[C@H]1CC[C@]2(O)C(=O)CO` [prednisone], the Kd was roughly 380 nM.
